Results from US10160748B2 (AbbVie Inc., priority 2015, dated 2018).

biological target: TNFα trimer (Homo sapiens, UniProt P01375); experiment: TNFα FP Competitive Binding Assay; conditions: FP binding assay; 20 nM TNFα trimer, 1 nM OregonGreen488 probe; read-out: TNF IC50
Summary of the method: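 Fluorescence polarization competition: 20 nM TNFα trimer with 1 nM fluorescein-labelled probe in HEPES/NaCl/EDTA/Triton X-100 buffer, compound in 12-point 1:3 dilutions (final top 338 μM or 100 μM). Incubated 18-24 h, background-subtracted mP read, variable-slope dose-response fitting.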

Chain of TNFα trimer (P01375 77-233 limits assumed): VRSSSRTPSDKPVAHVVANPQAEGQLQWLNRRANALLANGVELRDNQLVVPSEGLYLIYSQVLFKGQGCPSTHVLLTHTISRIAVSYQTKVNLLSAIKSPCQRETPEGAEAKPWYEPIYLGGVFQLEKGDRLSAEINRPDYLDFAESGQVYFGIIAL

Compound	IC50
Cn1c(=O)c2ccc(-c3cnc(N4CCOCC4)nc3)cc2n1C(=O)c1ccccc1OC(F)F [Example 1.7]	> 10000 nM
Cc1ccc(OC(F)F)c(Cn2c3nc(-c4cnc(C(C)(C)O)nc4C)c(F)cc3c(=O)n2C)c1 [Example 98, 1-(2-(Difluoromethoxy)-5-methylbenzyl)-5-fluoro-6-(2-(2-hydroxypropan-2-yl)-4-methylpyrimidin-5-yl)-2-methyl-1,2-dihydro-3H-pyrazolo[3,4-b]pyridin-3-one]	< 1000 nM
CC(=O)N1CCN(c2ncc(-c3ccc4c(=O)n(C)n(Cc5ccccc5OC(F)F)c4c3)cn2)[C@H](C)C1 [Example 10.16]	< 1000 nM
Cn1c(=O)c2ccc(-c3cnc(CC4(C)COC4)nc3)cc2n1Cc1ccccc1OC(F)F [Example 12, 1-(2-(Difluoromethoxy)benzyl)-2-methyl-6-(2-((3-methyloxetan-3-yl)methyl)pyrimidin-5-yl)-1H-indazol-3(2H)-one]	1000 to 10000 nM
Cn1c(=O)c2ccc(-c3cnc(N4CCOCC4)nc3)cc2n1Cc1cc(F)ccc1OC(F)F [Example 1.6]	1000 to 10000 nM
Cc1ccc(OC(F)F)c(Cn2c3cc(-c4cnc(C(C)(C)O)nc4)ccc3c(=O)n2C(F)F)c1 [Example 26.2]	1000 to 10000 nM
Cn1c(=O)c2ccc(-c3cnc(N4CCN5C(=O)OC[C@H]5C4)nc3)cc2n1Cc1ccccc1OC(F)F [Example 2.25]	< 1000 nM
CC(=O)N1CCN(c2ncc(-c3ccc4c(=O)n(C)n(Cc5cc(COc6ccn[nH]6)ccc5OC(F)F)c4c3)cn2)C[C@H]1C [Example 102]	< 1000 nM
Cn1c(=O)c2ccc(-c3cnc(N4CCOCC4)nc3)cc2n1Cc1ccc(F)cc1 [Example 1.11]	> 10000 nM
Cn1c(=O)c2ccc(-c3cnc(N4CCN5C(=O)NC[C@@H]5C4)nc3)cc2n1Cc1cc(Cn2cncn2)ccc1OC(F)F [Example 113, (R)-7-(5-(1-(5-((1H-1,2,4-Triazol-1-yl)methyl)-2-(difluoromethoxy)benzyl)-2-methyl-3-oxo-2,3-dihydro-1H-indazol-6-yl)pyrimidin-2-yl)hexahydroimidazo[1,5-a]pyrazin-3(2H)-one]	< 1000 nM
Cn1c(=O)c2ccc(-c3cnc(N4CCNCC4)nc3)cc2n1Cc1cc(Cl)ccc1Cl [Example 14.2]	1000 to 10000 nM
C[C@@H]1CN(c2ncc(-c3ccc4c(=O)n(C)n([C@@H](C)c5ccccc5F)c4c3)cn2)CCN1C(=O)CO (single isomer, unassigned) [Example 85]	< 1000 nM
Cc1ccc(OC(F)F)c(Cn2c3cc(-c4cnc(N5CCN(C(=O)COP(=O)(O)O)[C@H](C)C5)nc4)ccc3c(=O)n2C)c1 [Example 69, (R)-2-(4-(5-(1-(2-(Difluoromethoxy)-5-methylbenzyl)-2-methyl-3-oxo-2,3-dihydro-1H-indazol-6-yl)pyrimidin-2-yl)-2-methyldihydrogen phosphate]	< 1000 nM
[2H]C([2H])([2H])n1c(=O)c2ccc(-c3cnc(N4CCN5C(=O)OC[C@H]5C4)nc3)cc2n1Cc1cc(C)ccc1OC(F)F [Example 57, (R)-7-(5-(1-(2-(Difluoromethoxy)-5-methylbenzyl)-2-(methyl-d3)-3-oxo-2,3-dihydro-1H-indazol-6-yl)pyrimidin-2-yl)hexahydro-3H-oxazolo[3,4-a]pyrazin-3-one]	< 1000 nM
CN1CCC(Nc2ncc(-c3ccc4c(=O)n(C)n(Cc5cc(CO)ccc5OC(F)F)c4c3)cn2)CC1=O (centres unmarked) [Example 16.9]	< 1000 nM
Cn1c(=O)c2ccc(-c3cnc(N4CCOCC4)nc3)cc2n1Cc1ccccc1F [Example 1.15]	1000 to 10000 nM
Cc1ccc(Cl)c(Cn2c3nc(-c4cnc(C(C)(C)O)nc4C)ccc3c(=O)n2C)c1 [Example 99, 1-(2-Chloro-5-methylbenzyl)-6-(2-(2-hydroxypropan-2-yl)-4-methylpyrimidin-5-yl)-2-methyl-1,2-dihydro-3H-pyrazolo[3,4-b]pyridin-3-one]	< 1000 nM
C[C@@H]1CN(c2ncc(-c3ccc4c(=O)n(C)n(Cc5ccccc5OC(F)F)c4c3)cn2)CCN1C(=O)[C@@H](O)CC(=O)O [Example 51, (S)-4-((R)-4-(5-(1-(2-(Difluoromethoxy)benzyl)-2-methyl-3-oxo-2,3-dihydro-1H-indazol-6-yl)pyrimidin-2-yl)-2-methylpiperazin-1-yl)-3-hydroxy-4-oxobutanoic acid]	< 1000 nM
Cn1c(=O)c2ccc(-c3cnc(N4CCN(C(N)=O)CC4)nc3)cc2n1Cc1ccccc1OC(F)F [Example 2.1]	< 1000 nM
Cn1c(=O)c2ccc(-c3ccc(N4CCNCC4)nc3)cc2n1Cc1ccccc1OC(F)F [Example 14.1]	1000 to 10000 nM
Cn1c(=O)c2ccc(-c3cnc(N4CCOCC4)nc3)cc2n1Cc1cc(Cl)ccc1Cl [Example 7.1]	< 1000 nM
C[C@@H]1CN(c2ncc(-c3ccc4c(=O)n(C)n(Cc5ccccc5OC(F)F)c4c3)cn2)CCN1C(=O)[C@H](O)CO [Example 39, 1-(2-(Difluoromethoxy)benzyl)-6-(2-((R)-4-((R)-2,3-dihydroxypropanoyl)-3-methylpiperazin-1-yl)pyrimidin-5-yl)-2-methyl-1H-indazol-3(2H)-one]	< 1000 nM

Compound	IC50
Cn1c(=O)c2ccc(-c3cnc(NC4CCCCNC4=O)nc3)cc2n1Cc1ccccc1OC(F)F (centres unmarked) [Example 2.19]	1000 to 10000 nM
Cn1c(=O)c2ccc(-c3cnc(N4CCOCC4)nc3)cc2n1C(=O)c1ccccc1 [Example 1.8]	> 10000 nM
Cc1ccc(OC(F)F)c(Cn2c3cc(-c4cnc(C(C)(C)O)nc4C)c(F)cc3c(=O)n2C)c1 [Example 17.2]	< 1000 nM
O=c1c2ccc(-c3cnc(N4CCOCC4)nc3)cc2n(Cc2ccccc2OC(F)F)n1C1CC1 [Example 11, 2-Cyclopropyl-1-(2-(difluoromethoxy)benzyl)-6-(2-morpholinopyrimidin-5-yl)-1H-indazol-3(2H)-one]	1000 to 10000 nM
Cn1c(=O)c2ccc(-c3ccnc(N4CCOCC4)c3)cc2n1Cc1ccccc1OC(F)F [Example 5.6]	> 10000 nM
Cn1c(=O)c2ccc(-c3cnc(N4CCNC(=O)C4)nc3)cc2n1Cc1c(Cl)cccc1Cl [Example 8.2]	1000 to 10000 nM
CC(c1ccccc1Cl)n1c2cc(-c3cnc(N4CCN(C(=O)CO)[C@H](C)C4)nc3)ccc2c(=O)n1C (some centres unmarked) [Example 28.4]	1000 to 10000 nM
CN1CCC(Nc2ccc(Cl)c(Cn3c4cc(-c5cnc(C(C)(C)O)nc5)ccc4c(=O)n3C)c2)C1=O (centres unmarked) [Example 109, 1-(2-Chloro-5-((1-methyl-2-oxopyrrolidin-3-yl)amino)benzyl)-6-(2-(2-hydroxypropan-2-yl)pyrimidin-5-yl)-2-methyl-1H-indazol-3(2H)-one]	1000 to 10000 nM
Cc1cccc(Cn2c3cc(-c4cnc(N5CCOCC5)nc4)ccc3c(=O)n2C)c1 [Example 1.9]	1000 to 10000 nM
CC(c1cc(F)ccc1F)n1c2cc(-c3cnc(N4CCN(C(=O)CO)[C@H](C)C4)nc3)ccc2c(=O)n1C (some centres unmarked) [Example 24.7]	< 1000 nM
CC(=O)N1CCN(c2ncc(-c3ccc4c(=O)n(C)n(Cc5c(CO)cccc5OC(F)F)c4c3)cn2)[C@H](C)C1 [Example 65, (R)-6-(2-(4-acetyl-2-methylpiperazin-1-yl)pyrimidin-5-yl)-1-(2-(difluoromethoxy)-6-(hydroxymethyl)benzyl)-2-methyl-1H-indazol-3(2H)-one]	< 1000 nM
Cn1c(=O)c2ccc(-c3cnc(N[C@H]4CCNC(=O)C4)nc3)cc2n1Cc1cc(CO)ccc1OC(F)F (single isomer, unassigned) [Example 25]	< 1000 nM
Cn1c(=O)c2ccc(-c3cnc(N4CC(CC(=O)O)C4)nc3)cc2n1Cc1ccccc1OC(F)F [Example 2.18]	> 10000 nM
COCc1cccc(OC(F)F)c1Cn1c2cc(-c3cnc(C(C)(C)O)nc3)ccc2c(=O)n1C [Example 77, 1-(2-(Difluoromethoxy)-6-(methoxymethyl)benzyl)-6-(2-(2-hydroxypropan-2-yl)pyrimidin-5-yl)-2-methyl-1H-indazol-3(2H)-one]	1000 to 10000 nM
Cc1ccc(OC(F)F)c(Cn2c3cc(-c4ccnc(OC5CCOCC5)c4)ccc3c(=O)n2C)c1 [Example 22.13]	< 1000 nM
Cn1c(=O)c2cc(F)c(-c3cnc(C(C)(C)O)nc3)cc2n1Cc1cc(Cn2cncn2)ccc1OC(F)F [Example 26.4]	< 1000 nM
Cn1c(=O)c2ccc(-c3cc(N4CCOCC4)ncc3Cl)cc2n1Cc1cccc(F)c1 [Example 3.1]	> 10000 nM
Cc1ccc(C(F)(F)F)c(Cn2c3cc(-c4cnc(N5CCN(C(=O)CO)C[C@H]5C)nc4)ccc3c(=O)n2C)n1 [Example 19.5]	< 1000 nM
Cn1c(=O)c2ccc(-c3cnc(N4CCN5C(=O)NC[C@H]5C4)nc3)cc2n1Cc1cc(Cn2cnnc2)ccc1OC(F)F [Example 93, (S)-7-(5-(1-(5-((4H-1,2,4-triazol-4-yl)methyl)-2-(difluoromethoxy)benzyl)-2-methyl-3-oxo-2,3-dihydro-1H-indazol-6-yl)pyrimidin-2-yl)hexahydroimidazo[1,5-a]pyrazin-3(2H)-one]	< 1000 nM
C[C@@H]1CN(c2ncc(-c3ccc4c(=O)n(C)n(Cc5ccccc5Cl)c4c3)cn2)CCN1C(=O)CO [Example 24.8]	< 1000 nM
C[C@@H]1CN(c2ncc(-c3cc4c(cc3C#N)c(=O)n(C)n4Cc3ccccc3OC(F)F)cn2)CCN1C(=O)CO [Example 23.2]	1000 to 10000 nM
CC(=O)N1CCN(c2ncc(-c3ccc4c(=O)n(C)n(Cc5ccccc5OC(F)F)c4c3)cn2)CC1 [Example 2.3]	< 1000 nM
